Data from US10428026B2, “Pyridinone dicarboxamide for use as bromodomain inhibitors” (GlaxoSmithKline Intellectual Property (No.2) Limited, priority 2015, dated 2019).

These compounds were tested against T1, BRD4 BD2 (Homo sapiens, UniProt O60885, Y97A) (assay: BRD4 BD2 TR-FRET competition assay). Conditions: BRD4 BD2 TR-FRET; read-out: pIC50 in the BRD4 BD2 assay (converted).
T1 construct: BRD4 (1-477) (Y97A) and (Y390A); made in house; host or cells: E. coli (pET15b vector)
Format: binding

Row | SMILES | IC50
1 | CNC(=O)c1cc(C(=O)NC2CC2CO)cn(Cc2cccc(C)c2F)c1=O (stereo not shown) [Example 214, 1-(2-Fluoro-3-methylbenzyl)-N5-(2-(hydroxymethyl)cyclopropyl)-N3-methyl-2-oxo-1,2-dihydropyridine-3,5-dicarboxamide] | 1 to 100 µM
2 | CNC(=O)c1cc(C(=O)NC2CCC2)cn(Cc2ccc(C(=O)OC)cc2)c1=O [Example 180, Methyl 4-((5-(cyclobutylcarbamoyl)-3-(methylcarbamoyl)-2-oxopyridin-1(2H)-yl)methyl)benzoate] | 1 to 100 µM
3 | CNC(=O)c1cc(C(=O)N[C@@H]2CCC[C@H](O)C2)cn(Cc2ccccc2)c1=O [Example 219, 1-Benzyl-N5-((1R,3S)-3-hydroxycyclohexyl)-N3-methyl-2-oxo-1,2-dihydropyridine-3,5-dicarboxamide] | 1 to 100 µM
4 | CNC(=O)c1cc(C(=O)NC2CCC2)cn([C@@H](C)c2ccccc2)c1=O [Example 171, (S)-N5-Cyclobutyl-N3-methyl-2-oxo-1-(1-phenylethyl)-1,2-dihydropyridine-3,5-dicarboxamide] | 1 to 100 µM
5 | CNC(=O)c1cc(C(=O)NC2CC2)cn(C(C)c2cccc(C)c2)c1=O (single isomer, unassigned) [Example 211, (S*)-N5-Cyclopropyl-N3-methyl-2-oxo-1-(1-(m-tolyl)ethyl)-1,2-dihydropyridine-3,5-dicarboxamide] | 1 to 100 µM
6 | CNC(=O)c1cc(C(=O)N[C@@H]2CCCC[C@@H]2O)cn(Cc2ccccc2)c1=O (racemic) [Example 186, (+/−)-1-Benzyl-N5-((cis)-2-hydroxycyclohexyl)-N3-methyl-2-oxo-1,2-dihydropyridine-3,5-dicarboxamide] | 1 to 100 µM
7 | CNC(=O)c1cc(C(=O)NC2CCC2c2ccccc2)cn(Cc2ccccc2)c1=O (stereo not shown) [Example 168, 1-Benzyl-N3-methyl-2-oxo-N5-(2-phenylcyclobutyl)-1,2-dihydropyridine-3,5-dicarboxamide] | 1 to 100 µM
8 | CNC(=O)c1cc(C(=O)N[C@@H]2C[C@H]2CO)cn(C(C)c2cccc(C)c2)c1=O (mixture of isomers) [Example 267, N5-((trans)-2-(Hydroxymethyl)cyclopropyl)-N3-methyl-2-oxo-1-((S*)-1-(m-tolyl)ethyl)-1,2-dihydropyridine-3,5-dicarboxamide] | 1 to 100 µM
9 | CNC(=O)c1cc(C(=O)N[C@H]2C[C@@H]2C)cn(Cc2cc(OC)ccn2)c1=O [Example 334, 1-((4-Methoxypyridin-2-yl)methyl)-N^3-methyl-N^5-((1S,2S)-2-methylcyclopropyl)-2-oxo-1,2-dihydropyridine-3,5-dicarboxamide] | 1 to 100 µM
10 | CCO[C@H]1C[C@H]1NC(=O)c1cc(C(=O)NC)c(=O)n(Cc2cccc(F)c2)c1 (racemic) [Example 208, (+/−)-N5-((cis)-2-ethoxycyclopropyl)-1-(3-fluorobenzyl)-N3-methyl-2-oxo-1,2-dihydropyridine-3,5-dicarboxamide] | 1 to 100 µM
11 | CCO[C@H]1C[C@H]1NC(=O)c1cc(C(=O)NC)c(=O)n(Cc2cccc(C)c2)c1 (racemic) [Example 222, (+/−)-N5-((cis)-2-ethoxycyclopropyl)-N3-methyl-1-(3-methylbenzyl)-2-oxo-1,2-dihydropyridine-3,5-dicarboxamide] | 1 to 100 µM
12 | CNC(=O)c1cc(C(=O)N[C@H]2C[C@@H]2C)cn(Cc2ccc(C(=O)O)cc2)c1=O [Example 339, 4-((3-(Methylcarbamoyl)-5-(((1S,2S)-2-methylcyclopropyl)carbamoyl)-2-oxopyridin-1(2H)-yl)methyl)benzoic acid] | 1 to 100 µM
13 | CNC(=O)c1cc(C(=O)NC2CC2)cn(C(C)c2ccccc2C)c1=O (single isomer, unassigned) [Example 213, (R*)-N5-Cyclopropyl-N3-methyl-2-oxo-1-(1-(o-tolyl)ethyl)-1,2-dihydropyridine-3,5-dicarboxamide] | 1 to 100 µM
14 | CNC(=O)c1cc(C(=O)NCC2CCCCC2O)cn(Cc2ccccc2)c1=O (stereo not shown) [Example 194, 1-Benzyl-N5-((2-hydroxycyclohexyl)methyl)-N3-methyl-2-oxo-1,2-dihydropyridine-3,5-dicarboxamide] | 1 to 100 µM
15 | CNC(=O)c1cc(C(=O)NC[C@H]2CC[C@@H](O)CC2)cn(Cc2ccccc2)c1=O [Example 201, 1-Benzyl-N5-(((cis)-4-hydroxycyclohexyl)methyl)-N3-methyl-2-oxo-1,2-dihydropyridine-3,5-dicarboxamide] | 1 to 100 µM
16 | CNC(=O)c1cc(C(=O)NC2CC2)cn(CC2COc3ccccc32)c1=O (stereo not shown) [Example 268, N5-Cyclopropyl-1-((2,3-dihydrobenzofuran-3-yl)methyl)-N3-methyl-2-oxo-1,2-dihydropyridine-3,5-dicarboxamide] | 1 to 100 µM
17 | CNC(=O)c1cc(C(=O)NC2CC2)cn(C(CO)c2ccccc2)c1=O (single isomer, unassigned) [Example 324, (R*)—N^5-Cyclopropyl-1-(2-hydroxy-1-phenylethyl)-N^3-methyl-2-oxo-1,2-dihydropyridine-3,5-dicarboxamide] | 1 to 100 µM
18 | CNC(=O)c1cc(C(=O)NC[C@H]2CC[C@H](O)CC2)cn(Cc2ccccc2)c1=O [Example 200, 1-Benzyl-N5-(((trans)-4-hydroxycyclohexyl)methyl)-N3-methyl-2-oxo-1,2-dihydropyridine-3,5-dicarboxamide] | 1 to 100 µM
19 | CNC(=O)c1cc(C(=O)NC2CC2)cn(CC2CCCc3[nH]cnc32)c1=O (racemic) [Example 250, (+/−)-N5-Cyclopropyl-N3-methyl-2-oxo-1-((4,5,6,7-tetrahydro-1H-benzo[d]imidazol-4-yl)methyl)-1,2-dihydropyridine-3,5-dicarboxamide] | 1 to 100 µM
20 | CNC(=O)c1cc(C(=O)NC2CC2)cn(CCCc2ccccc2)c1=O [Example 190, N5-Cyclopropyl-N3-methyl-2-oxo-1-(3-phenylpropyl)-1,2-dihydropyridine-3,5-dicarboxamide] | 1 to 100 µM
21 | CNC(=O)c1cc(C(=O)NC[C@@H]2CCC[C@H](O)C2)cn(Cc2ccccc2)c1=O (racemic) [Example 206, (+/−)-1-Benzyl-N5-(((1R,3S)-3-hydroxycyclohexyl)methyl)-N3-methyl-2-oxo-1,2-dihydropyridine-3,5-dicarboxamide] | 1 to 100 µM
22 | CNC(=O)c1cc(C(=O)N[C@H]2C[C@@H]2C)cn(Cc2cc(C)ccn2)c1=O [Example 335, N^3-Methyl-N^5-((1S,2S)-2-methylcyclopropyl)-1-((4-methylpyridin-2-yl)methyl)-2-oxo-1,2-dihydropyridine-3,5-dicarboxamide] | 1 to 100 µM
23 | CNC(=O)c1cc(C(=O)NC2CCC2)cn(Cc2cnn(C)c2)c1=O [Example 163, N5-Cyclobutyl-N3-methyl-1-((1-methyl-1H-pyrazol-4-yl)methyl)-2-oxo-1,2-dihydropyridine-3,5-dicarboxamide] | 1 to 100 µM

The next lines start with the values.

Row | IC50 | SMILES
24 | 1 to 100 µM | CNC(=O)c1cc(C(=O)NC[C@@H]2CC[C@@H](O)C2)cn(Cc2ccccc2)c1=O (racemic) [Example 198, (+/−)-1-Benzyl-N5-(((trans)-3-hydroxycyclopentyl)methyl) N3-methyl-2-oxo-1,2-dihydropyridine-3,5-dicarboxamide]
25 | 1 to 100 µM | CNC(=O)c1cc(C(=O)N[C@@H]2CC[C@H]2OC)cn(Cc2ccccc2)c1=O (racemic) [Example 243, (+/−)-1-Benzyl-N5-((trans)-2-methoxycyclobutyl)-N3-methyl-2-oxo-1,2-dihydropyridine-3,5-dicarboxamide]
26 | 1 to 100 µM | CNC(=O)c1cc(C(=O)N[C@H]2C[C@@H](C(=O)O)C2)cn(Cc2ccccc2)c1=O [Example 169, (cis)-3-(1-Benzyl-5-(methylcarbamoyl)-6-oxo-1,6-dihydropyridine-3-carboxamido)cyclobutane-carboxylic acid]
27 | 1 to 100 µM | CNC(=O)c1cc(C(=O)N[C@@H]2CCCC[C@H]2O)cn(Cc2ccccc2)c1=O (racemic) [Example 185, (+/−)-1-Benzyl-N5-((trans)-2-hydroxycyclohexyl)-N3-methyl-2-oxo-1,2-dihydropyridine-3,5-dicarboxamide]
28 | 1 to 100 µM | CCOC1CC(NC(=O)c2cc(C(=O)NC)c(=O)n(Cc3ccccc3)c2)C1OC (stereo not shown) [Example 177, 1-Benzyl-N5-(3-ethoxy-2-methoxycyclobutyl)-N3-methyl-2-oxo-1,2-dihydropyridine-3,5-dicarboxamide]
29 | 1 to 100 µM | CNC(=O)c1cc(C(=O)N[C@@H]2CCC[C@@H](O)C2)cn(Cc2ccccc2)c1=O (relative stereo) [Example 217, 1-Benzyl-N5-((1R*,3R*)-3-hydroxycyclohexyl)-N3-methyl-2-oxo-1,2-dihydropyridine-3,5-dicarboxamide]
30 | 1 to 100 µM | CNC(=O)c1cc(C(=O)NC2(CC(C)C)CC2)cn(Cc2ccccc2)c1=O [Example 173, 1-Benzyl-N5-(1-isobutylcyclopropyl)-N3-methyl-2-oxo-1,2-dihydropyridine-3,5-dicarboxamide]
31 | 1 to 100 µM | CNC(=O)c1cc(C(=O)NC2CC2(C)C)cn(Cc2ccccc2)c1=O (single isomer, unassigned) [Example 248, (R*)-1-Benzyl-N5-(2,2-dimethylcyclopropyl)-N3-methyl-2-oxo-1,2-dihydropyridine-3,5-dicarboxamide]
32 | 1 to 100 µM | CCCC1(NC(=O)c2cc(C(=O)NC)c(=O)n(Cc3ccccc3)c2)CC1 [Example 178, 1-Benzyl-N3-methyl-2-oxo-N5-(1-propylcyclopropyl)-1,2-dihydropyridine-3,5-dicarboxamide]
33 | 1 to 100 µM | CNC(=O)c1cc(C(=O)NC[C@@H]2CC[C@H](O)C2)cn(Cc2ccccc2)c1=O (racemic) [Example 199, (+/−)-1-Benzyl-N5-(((cis)-3-hydroxycyclopentyl)methyl)-N3-methyl-2-oxo-1,2-dihydropyridine-3,5-dicarboxamide]
34 | 1 to 100 µM | CNC(=O)c1cc(C(=O)NC[C@H]2CCC[C@@H]2O)cn(Cc2ccccc2)c1=O (racemic) [Example 196, (+/−)-1-Benzyl-N5-(((1R,2S)-2-hydroxycyclopentyl)methyl)-N3-methyl-2-oxo-1,2-dihydropyridine-3,5-dicarboxamide]
